Measurements taken from BindingDB's records for patent US11752155 (Rugen Holdings (Cayman), 2023).

Biological target: hERG (Potassium voltage-gated channel subfamily H member 2) (Homo sapiens, UniProt Q12809)
Experiment: hERG Channel Inhibition
Conditions: HEK293 cells stably expressing hERG channel, pH 7.35
Experimental: The assay was performed on hERG channel stably expressed in HEK293 cells. The cells were cultured at 37° C. in a humidified CO2 incubator in the growth medium consisting of DMEM, 10% fetal bovine serum and antibiotics. Prior to the assay, the cells were seeded onto a 12-mm PDL-coated glass coverslip and cultured in a 35-mm Petri dish. […] Giga-seal was maintained during the test. […] Whole-cell hERG currents were recorded following the Petroski protocol: the cell was held at −80 mV, and the voltage step jumped from −80 to 30 mV and stay for 2 seconds with a 20-millisecond prepulse at −40 mV. After depolarization, the voltage was decreased to −40 mV and stay for 2 seconds, and returned back to −80 mV. Test compound was applied by quartz capillary tubes tip (200 m inner diameter), and the flow rate was controlled at 2-3 mL/min with OctaFlow perfusion system. Different concentrations of the compound were applied to the cells for 5 minutes and the hERG current was measured three times before, during and after compound treatment. The data were analyzed using Clampfit 10 software (Molecular Devices) to generate IC50 values.

Chain of hERG (Potassium voltage-gated channel subfamily H member 2) (Q12809 whole entry): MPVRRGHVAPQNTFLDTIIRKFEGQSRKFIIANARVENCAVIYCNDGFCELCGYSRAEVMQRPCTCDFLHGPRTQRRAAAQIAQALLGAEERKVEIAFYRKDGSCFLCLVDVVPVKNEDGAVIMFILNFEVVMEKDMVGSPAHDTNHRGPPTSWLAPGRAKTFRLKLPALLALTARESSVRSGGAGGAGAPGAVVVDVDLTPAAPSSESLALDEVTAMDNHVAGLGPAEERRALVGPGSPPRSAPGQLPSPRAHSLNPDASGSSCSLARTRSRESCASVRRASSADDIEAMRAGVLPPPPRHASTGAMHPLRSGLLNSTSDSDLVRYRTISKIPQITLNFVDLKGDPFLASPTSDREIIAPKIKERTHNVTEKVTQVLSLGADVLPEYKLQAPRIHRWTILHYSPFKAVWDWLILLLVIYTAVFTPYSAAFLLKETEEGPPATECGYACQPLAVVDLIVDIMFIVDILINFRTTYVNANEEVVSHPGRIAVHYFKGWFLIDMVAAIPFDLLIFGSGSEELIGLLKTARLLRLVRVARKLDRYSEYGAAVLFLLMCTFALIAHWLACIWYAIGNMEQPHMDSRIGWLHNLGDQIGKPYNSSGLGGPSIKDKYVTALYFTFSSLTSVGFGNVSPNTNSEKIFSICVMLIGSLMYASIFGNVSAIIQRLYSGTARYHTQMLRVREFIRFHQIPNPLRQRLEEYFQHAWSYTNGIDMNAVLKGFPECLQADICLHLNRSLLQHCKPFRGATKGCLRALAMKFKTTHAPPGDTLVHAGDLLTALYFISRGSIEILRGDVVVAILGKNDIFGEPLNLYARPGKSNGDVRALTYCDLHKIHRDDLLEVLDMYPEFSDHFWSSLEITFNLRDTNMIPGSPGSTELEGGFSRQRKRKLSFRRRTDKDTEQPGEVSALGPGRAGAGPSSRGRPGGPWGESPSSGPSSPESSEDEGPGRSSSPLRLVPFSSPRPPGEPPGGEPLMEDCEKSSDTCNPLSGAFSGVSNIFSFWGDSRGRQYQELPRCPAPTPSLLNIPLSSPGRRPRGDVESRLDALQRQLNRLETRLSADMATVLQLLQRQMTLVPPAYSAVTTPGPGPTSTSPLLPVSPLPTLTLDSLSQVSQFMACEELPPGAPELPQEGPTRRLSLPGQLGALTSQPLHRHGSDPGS

`FC(F)(F)Oc1ccc(C(F)(F)CN2CCC(Nc3ncnc4[nH]ccc34)CC2)nc1` [US11752155, Compound C-11A'] gave an IC50 at 5 min of 3.8 µM.
